In paper PMC6915887, “Inhibition of human carboxylesterases by ginsenosides: structure–activity relationships and inhibitory mechanism” (Chinese Medicine, 2019):

Assays:
Format in all cases: biochemical
[1] = target: T1, hCES1A (Homo sapiens, UniProt P23141); assay: hCES1A inhibition assay (DME hydrolysis in HLM); conditions: for IC50: HLM as enzyme source, DME hydrolysis as probe reaction, read-out: IC50 (μM) hCES1A;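 on all read-outs here: Read-out is D-luciferin luminescence formed from DME (3 µM) after 10 min at 37 °C in pH 6.5 PBS, HLM 1 µg/mL, inhibitor preincubated 3 min, oleanic acid as positive control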
T1 construct: tissue Bioreclamation IVT lot no; X008067; host or cells: pooled human liver microsomes (50 donors)
T1 sequence (P23141 18-567): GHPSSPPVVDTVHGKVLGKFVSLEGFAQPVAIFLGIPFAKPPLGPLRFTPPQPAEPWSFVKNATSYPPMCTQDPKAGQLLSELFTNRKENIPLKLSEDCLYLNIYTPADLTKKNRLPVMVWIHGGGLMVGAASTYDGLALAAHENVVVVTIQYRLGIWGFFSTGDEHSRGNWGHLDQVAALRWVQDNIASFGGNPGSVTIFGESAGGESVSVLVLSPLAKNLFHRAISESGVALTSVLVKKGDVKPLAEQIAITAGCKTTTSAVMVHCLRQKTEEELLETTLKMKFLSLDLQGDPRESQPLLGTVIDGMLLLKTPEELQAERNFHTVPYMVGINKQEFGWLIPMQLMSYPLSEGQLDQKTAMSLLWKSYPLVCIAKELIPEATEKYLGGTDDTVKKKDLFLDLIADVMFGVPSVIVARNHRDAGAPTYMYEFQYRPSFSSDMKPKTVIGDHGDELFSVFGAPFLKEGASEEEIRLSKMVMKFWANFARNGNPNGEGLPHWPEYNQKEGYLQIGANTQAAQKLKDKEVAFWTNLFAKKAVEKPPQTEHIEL
Description: DME hydrolysis was used as the probe reaction to assay the inhibitory effects of 25 ginsenosides against hCES1A, oleanic acid was used as a positive control of inhibition assays [43]. The incubation system contains 91 μL PBS (0.1 M pH 6.5), 5 μL HLM (1 μg/mL, final concentration) and 2 μL corresponding inhibitor. After pre-incubating the reaction mixture for 3 min at 37 °C, the reaction was started by adding 2 μL DME (3 μM, final concentration) with a total volume of 100 μL, in which the final content of DMSO was limited to 2% (v/v). After incubating for 10 min at 37 °C in a shaking bath, LDR (50 μL, equal volume of the incubation mixture) was added to terminate the reaction. The luminescence signals of D-luciferin (the hydrolytic metabolite of DME) was measured (excitation wavelength 580 nm) by a multi-mode microplate reader (SpectraMax® iD3, Molecular Devices, Austria).

[2] = target: T2, hCES2A (Homo sapiens, UniProt O00748); assay: hCES2A inhibition assay (FD hydrolysis in HLM); conditions: for inhibition of hCES2A-mediated FD hydrolysis (residual activity screen): HLM, ginsenoside 100 μM, result in words; for Specificity (hCES1A/hCES2A): ratio of IC50 values in HLM;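 on all read-outs here: HLM at 1 µg/mL in 0.1 M PBS pH 7.4, kinetic read at 37 °C every 30 s over 30 min, triplicate runs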
T2 construct: tissue Bioreclamation IVT lot no; X008067; host or cells: pooled human liver microsomes (50 donors)
T2 sequence (O00748 27-559): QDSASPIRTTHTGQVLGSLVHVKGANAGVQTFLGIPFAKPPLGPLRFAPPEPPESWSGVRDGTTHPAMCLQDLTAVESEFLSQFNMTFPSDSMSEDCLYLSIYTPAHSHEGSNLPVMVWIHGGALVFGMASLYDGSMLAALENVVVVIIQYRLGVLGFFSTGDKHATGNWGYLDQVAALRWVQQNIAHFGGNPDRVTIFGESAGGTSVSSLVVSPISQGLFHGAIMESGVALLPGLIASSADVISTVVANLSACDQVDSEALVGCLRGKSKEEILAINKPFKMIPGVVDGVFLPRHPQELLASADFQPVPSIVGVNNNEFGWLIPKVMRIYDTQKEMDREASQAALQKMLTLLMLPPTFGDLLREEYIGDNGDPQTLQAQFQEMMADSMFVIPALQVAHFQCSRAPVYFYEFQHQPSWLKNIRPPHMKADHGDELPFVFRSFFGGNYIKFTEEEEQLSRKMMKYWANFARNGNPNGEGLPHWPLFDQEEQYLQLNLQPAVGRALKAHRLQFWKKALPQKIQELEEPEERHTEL
Description: The incubation system contains 2 μL HLM (1 μg/mL, final concentration), 194 μL PBS (0.1 M pH 7.4) and 2 μL corresponding inhibitor. […] The kinetic parameters were set at 30 reads, with an interval of 30 s (30 min) and shake during 5 s before the first read at 37 °C.

[3] = target: T1, hCES1A; assay: Inhibition kinetic analyses of hCES1A-mediated DME hydrolysis in HLM
Description: According to the inhibition kinetics of both hCES1A and hCES2A, which were investigated by using varying concentrations of probe substrates in the presence of different concentrations of ginseng compounds (inhibitors), the inhibition constant (Ki) and inhibition kinetic types of ginsenosides were determined. The experimental details used to determine the inhibition constants have been reported previously.
All inhibition assays were performed in triplicate, nonlinear regression was used to determine the IC50 and Ki values with GraphPad Prism 7.0 software (GraphPad Software, Inc., La Jolla, USA).

[4] = target: T2, hCES2A; assay: Inhibition kinetic analyses of hCES2A-mediated FD hydrolysis in HLM

Structure (SMILES)	IC50 [1] [µM]	inhibition of hCES2A-mediated FD hydrolysis (residual activity screen) [2]	Specificity (hCES1A/hCES2A) [2]	Inhibition mode [3]	Ki [3] [µM]	Inhibition mode [4]	inhibition of hCES1A-mediated DME hydrolysis (residual activity screen) ([1]; HLM, ginsenoside 100 μM, result in words)	IC50 ([2]; HLM as enzyme source, FD hydrolysis as probe reaction, read-out: IC50 (μM) hCES2A) [µM]	Ki [4] [µM]
CC(C)=CCC[C@](C)(O)[C@H]1CC[C@]2(C)[C@@H]1CC[C@@H]1[C@@]3(C)CC[C@H](O)C(C)(C)[C@@H]3CC[C@]12C [DM, Dammarenediol II]	1.99 ± 0.21	strong or moderate inhibition	3.06	Competitive	2.1	Mixed			
CC(C)=CCC[C@](C)(O[C@@H]1O[C@H](CO)[C@@H](O)[C@H](O)[C@H]1O)C1CC[C@]2(C)C1CCC1[C@@]3(C)CC[C@H](O)C(C)(C)C3CC[C@]12C (stereo partly drawn) [DMG, 20S-O-β-(D-glucosyl)-dammarenediol II]	1.76 ± 0.28	strong inhibition		Competitive	2.4	Mixed	strong inhibition	1.06 ± 0.21	2.83
CC(C)=CCC[C@](C)(O)[C@H]1CC[C@]2(C)[C@@H]1[C@H](O)C[C@@H]1[C@@]3(C)CC[C@H](O)C(C)(C)[C@@H]3CC[C@]12C [PPD, protopanaxadiol]	> 100	strong or moderate inhibition	> 75.18			Mixed			
CC(C)=CCC[C@](C)(O)[C@H]1CC[C@]2(C)[C@@H]1[C@H](O)C[C@@H]1[C@@]3(C)CC[C@H](O)C(C)(C)[C@@H]3[C@@H](O)C[C@]12C [PPT, protopanaxatriol]	> 100	strong or moderate inhibition	> 116.28			Mixed			
